Tests used:
[1] = degradation time in vivo of ω-oxidation blocked analogue
From the text: ω-oxidation is believed to be the main pathway for degradation of the fatty acid entities as described with a block in the X position. Experiments were thus performed where R′ was changed to block ω-oxidation, by introducing a triple bond at the methyl end of the fatty acid analogue. […] This is important for the use of the fatty acid entities in pharmaceutical preparation, as it may potentiate the effects of the β-oxidizable fatty acid entities by further slowing down their breakdown.

[2] = test system: mitochondrial β-oxidation in the liver; test: activity of mitochondrial β-oxidation in the liver of fatty acid analogues; assay type: biochemical
From the text: Although all fatty acid anagoges with an odd positioning of the β-oxidation blocker X away from the carboxylic end block β-oxidation, the extent of their biological effect may be variable. This is due to the difference in biological degradation time of the various compounds. The inventors have done experiments to show the effect of moving X further from the carboxylic fatty acid end. In these experiments the activity (in nmol/min/mg/protein) of mitochondrial β-oxidation in the liver of fatty acid analogues was measured with sulphur in the 3, 5 and 7 positions relative to the carboxyl end. The activities were 0.81 for sulphur in the 3rd position, 0.61 for sulphur in the 5th position, 0.58 for sulphur in the 7th position, and 0.47 for palmitic acid, the non β-oxidation blocking control. […] However, as the decline is great for going from the 3rd to 5th position, but small going from the 5th to 7th position, it is reasonable to assume that this decline will continue to be less as one moves out the chain and thus that it will be very far out indeed before no effect (compared to the control) is seen at all.

Compound | degradation time in vivo [1] | activity of mitochondrial β-oxidation in the liver [2] [nmol/min/mg/protein]
CC#CCCCCCCCCCCCSCC [3-thia-15-heptadecyn] | substantially increased degradation time in vivo | –
CCCCCCCCCCCCCCCC(=O)O [palmitic acid] | – | 0.47

Reference: patent US7659242B2, “Composition comprising protein material and compounds comprising non-oxidizable fatty acid entities” (Thia Medica AS, priority 2004, dated 2010)
